According to patent US12110523B2, “Reagents and methods for esterification” (Wisconsin Alumni Research Foundation, priority 2015, dated 2024):

Legend:
RNase A = molecular target: T1, RNase A (Bos taurus, UniProt P61823); conditions: at 10 eq; of eleven carboxylates; cited from earlier work
T1 sequence (P61823 27-150): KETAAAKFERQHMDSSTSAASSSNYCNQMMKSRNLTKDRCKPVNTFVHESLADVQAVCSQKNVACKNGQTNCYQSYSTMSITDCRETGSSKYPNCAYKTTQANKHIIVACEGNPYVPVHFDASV

[1] = acetonitrile and acetonitrile/aqueous buffer (3:1 v/v); cited from earlier work
CHO K1 cells = assay: Internalization of esterified GFP by CHO K1 cells (flow cytometry, confocal microscopy); type: cell-based, Chinese hamster; conditions: 15 μM GFP, 37° C., 2 h, versus unlabeled GFP
From the text: FIG. 8 is a graph showing quantification of internalization of labeled versus unlabeled GFP by CHO K1 cells using flow cytometry measuring median fluorescence intensity. Single cells were sorted based on forward scatter-side scatter measurements, and live cells were sorted using 7AAD (7-amino-actinomycin D) stain.
FIGS. 9A-C illustrate microscopy images of uptake of esterified GFP (green) by CHO K1 cells. FIG. 9A: Not esterified. FIG. 9B: Esterified with α-diazo-4-methylphenyl-N-propargylacetamide. FIG. 9C: Esterified with α-diazo-4-methylphenyl-N,N-dimethylacetamide. Cell nuclei are stained with Hoechst 33342 (blue).
Chinese hamster ovary (CHO) K1 cells were incubated at 37° C. for 2 h in F-12K medium (which was supplemented with penicillin/streptomycin) containing either unlabeled or labeled GFP (15 μM). […] Individual cells were imaged by confocal microscopy for two of the diazo compounds.

[2] = measured in dimethylsulfoxide; cited from earlier work

| Compound | formation of the desired ester with carboxylic acids [1] | uptake of GFP esterified with the diazo compound into CHO K1 cells (CHO K1 cells) | other results |
| --- | --- | --- | --- |
| [N-]=[N+]=C1c2ccccc2-c2ccccc21 [9-diazofluorene] | gave the desired ester in aqueous medium | – | average number of carboxylates labeled in RNase A (RNase A): three |
| CNC(=O)C(=[N+]=[N-])c1ccc(C)cc1 [Diazo compound 11, α-diazo-4-methylphenyl-N-methylacetamide] | – | enhanced | – |
| Cc1ccc(C(=[N+]=[N-])C(=O)N(C)C)cc1 [Diazo compound 12, α-diazo-4-methylphenyl-N,N-dimethylacetamide] | – | enhanced | – |
| CCOC(=O)C(=[N+]=[N-])C(=O)OCC [diethyl 2-diazomalonate] | unreactive | – | – |
| CCOC(=O)CC(=O)OCC [diethylmalonate] | – | – | pKa [2]: 16.4 |
